pIC50: −log10 of the molar value. A value given as a limit tells only on which side of the number the result lay.

In general, pIC50 refers to the IC50 on a negative log10 scale, so that one unit is a factor of ten.

The test deals with Human mast cells (CHMC). Kind of test: LD Tryptase release assay in CHMC (mast cell activation induced by FcγR cross-linking). To be noted: Homo sapiens, Mast cell, anti-IgG stimulation, activity of tryptase released upon degranulation. The class given is cell-based. An outline of the steps:
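Mast cells derived from CD38-negative progenitors were preincubated 1 h at 37 °C with compound in HEPES-buffered saline (pH 7.4, 0.1% BSA, compound diluted in buffer with 2% MeOH/1% DMSO). Cells were then stimulated 60 min with anti-human IgG (final 1 μg/mL). Released tryptase was measured on Z-Ala-Lys-Arg-AMC (30 min, room temperature, 355/460 nm) to give the IC50.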
For `CO[C@@H]1CCN(c2ccc(Nc3ncc(F)c(Nc4ccc5c(n4)NC(=O)C(C)(C)O5)n3)cn2)C1` [Compound 65, N4-(2,2-dimethyl-3,4-dihydro-3-oxo-2H-pyrido[3,2-b][1,4]oxazin-6-yl)-5-fluoro-N2-[6-((3R)-3-methoxypyrrolidin-1-yl)pyridin-3-yl]-2,4-pyrimidinediamine], the pIC50 was 6.30 to 7.00.

Turning to `CCN(CC)C1CCN(c2ccc(Nc3ncc(F)c(Nc4ccc5c(n4)NC(=O)C(C)(C)O5)n3)cn2)C1` (centres unmarked) [Compound 66, N4-(2,2-dimethyl-3,4-dihydro-3-oxo-2H-pyrido[3,2-b][1,4]oxazin-6-yl)-5-fluoro-N2-[6-(3-(diethylamino)pyrrolidin-1-yl)pyridin-3-yl]-2,4-pyrimidinediamine], the pIC50 is 6.00 to 6.30.

With `CC1(C)Oc2ccc(Nc3nc(Nc4ccc(N5CCC(N6CCOCC6)C5)nc4)ncc3F)nc2NC1=O` (centres unmarked) [Compound 67, N4-(2,2-dimethyl-3,4-dihydro-3-oxo-2H-pyrido[3,2-b][1,4]oxazin-6-yl)-5-fluoro-N2-[6-(3-morpholinopyrrolidin-1-yl)pyridin-3-yl]-2,4-pyrimidinediamine], the pIC50 is 6.30 to 7.00.

For the compound `CCN[C@@H]1CCN(c2ccc(Nc3ncc(F)c(Nc4ccc5c(n4)NC(=O)C(C)(C)O5)n3)cn2)C1` [Compound 68, N4-(2,2-dimethyl-3,4-dihydro-3-oxo-2H-pyrido[3,2-b][1,4]oxazin-6-yl)-5-fluoro-N2-[6-((3R)-3-(ethylamino)pyyriolidin-1-yl)pyridin-3-yl]-2,4-pyrimidinediamine], the pIC50 was 6.30 to 7.00.

Take `COC1CN(c2ccc(Nc3ncc(F)c(Nc4ccc5c(n4)NC(=O)C(C)(C)O5)n3)cn2)C1` [Compound 69, N4-(2,2-dimethyl-3,4-dihydro-3-oxo-2H-pyrido[3,2-b][1,4]oxazin-6-yl)-5-fluoro-N2-[6-(3-methoxyazetidin-1-yl)pyridin-3-yl]-2,4-pyrimidinediamine]: the pIC50 was under 4.00.

For the compound `CC1(C)Oc2ccc(Nc3nc(Nc4ccc(N5CCC(C(N)=O)C5)nc4)ncc3F)nc2NC1=O` (centres unmarked) [Compound 70, N4-(2,2-dimethyl-3,4-dihydro-3-oxo-2H-pyrido[3,2-b][1,4]oxazin-6-yl)-5-fluoro-N2-[6-(3-(aminocarbonyl)pyrrolidin-1-yl)pyridin-3-yl]-2,4-pyrimidinediamine], the negative-log IC50 (pIC50) is 6.00 to 6.30.

Consider `CC1(C)Oc2ccc(Nc3nc(Nc4ccc(N5CC[C@H](CO)C5)nc4)ncc3F)nc2NC1=O` [Compound 71, N4-(2,2-dimethyl-3,4-dihydro-3-oxo-2H-pyrido[3,2-b][1,4]oxazin-6-yl)-5-fluoro-N2-[6-((3S)-3-(hydroxymethyl)pyrrolidin-1-yl)pyridin-3-yl]-2,4-pyrimidinediamine], for which the pIC50 is 6.30 to 7.00.

As to `CC1(C)Oc2ccc(Nc3nc(Nc4ccc(N5CCOC5=O)nc4)ncc3F)nc2NC1=O` [Compound 72, N4-(2,2-dimethyl-3,4-dihydro-3-oxo-2H-pyrido[3,2-b][1,4]oxazin-6-yl)-5-fluoro-N2-[6-(2-oxooxazolidin-3-yl)pyridin-3-yl]-2,4-pyrimidinediamine], the pIC50 is 6.30 to 7.00.

Regarding `CC(C)[C@@H]1COC(=O)N1c1ccc(Nc2ncc(F)c(Nc3ccc4c(n3)NC(=O)C(C)(C)O4)n2)cn1` [Compound 73, N4-(2,2-dimethyl-3,4-dihydro-3-oxo-2H-pyrido[3,2-b][1,4]oxazin-6-yl)-5-fluoro-N2-[6-((4R)-4-isopropyl-2-oxooxazolidin-3-yl)pyridin-3-yl]-2,4-pyrimidinediamine], the pIC50 is 6.30 to 7.00.

In the case of `CC(C)[C@H]1COC(=O)N1c1ccc(Nc2ncc(F)c(Nc3ccc4c(n3)NC(=O)C(C)(C)O4)n2)cn1` [Compound 74, N4-(2,2-dimethyl-3,4-dihydro-3-oxo-2H-pyrido[3,2-b][1,4]oxazin-6-yl)-5-fluoro-N2-[6-((4S)-4-isopropyl-2-oxooxazolidin-3-yl)pyridin-3-yl]-2,4-pyrimidinediamine], the pIC50 is 4.00 to 6.00.

As to `CC1(C)Oc2ccc(Nc3nc(Nc4ccc(-c5cccnc5)nc4)ncc3F)nc2NC1=O` [Compound 75, N4-(2,2-dimethyl-3,4-dihydro-3-oxo-2H-pyrido[3,2-b][1,4]oxazin-6-yl)-5-fluoro-N2-[2,3′-bipyridin-5-yl]-2,4-pyrimidinediamine], the negative-log IC50 (pIC50) was 4.00 to 6.00.

As to `Cc1ccc(Nc2ncc(F)c(Nc3ccc4c(n3)NC(=O)C(C)(C)O4)n2)cn1` [Compound 76, N4-(2,2-dimethyl-3,4-dihydro-3-oxo-2H-pyrido[3,2-b][1,4]oxazin-6-yl)-5-fluoro-N2-[6-methylpyridin-3-yl]-2,4-pyrimidinediamine], the negative logarithm of the IC50 (pIC50) was 6.30 to 7.00.

For the compound `CC1(C)Oc2ccc(Nc3nc(Nc4ccc(N5CCC(O)CC5)cc4)ncc3F)nc2NC1=O` [Compound 77, N4-(2,2-dimethyl-3,4-dihydro-3-oxo-2H-pyrido[3,2-b][1,4]oxazin-6-yl)-5-fluoro-N2-[4-(4-hydroxypiperidin-1-yl)phenyl]-2,4-pyrimidinediamine], the pIC50 is over 7.00.

`CC1(C)Oc2ccc(Nc3nc(Nc4ccc(N5CCCCC5)cc4)ncc3F)nc2NC1=O` [Compound 78, N4-(2,2-dimethyl-3,4-dihydro-3-oxo-2H-pyrido[3,2-b][1,4]oxazin-6-yl)-5-fluoro-N2-[4-(piperidin-1-yl)phenyl]-2,4-pyrimidinediamine]: the negative logarithm of the IC50 (pIC50) was 4.00 to 6.00.

For the compound `C[C@H]1CN(c2ccc(Nc3ncc(F)c(Nc4ccc5c(n4)NC(=O)C(C)(C)O5)n3)cc2)CCO1` [Compound 79, N4-(2,2-dimethyl-3,4-dihydro-3-oxo-2H-pyrido[3,2-b][1,4]oxazin-6-yl)-5-fluoro-N2-1-2,4-pyrimidinediamine], the negative-log IC50 (pIC50) is 6.30 to 7.00.

Turning to `C[C@H]1CN(c2ccc(Nc3ncc(F)c(Nc4ccc5c(n4)NC(=O)CO5)n3)cc2)CCO1` [Compound 80], the pIC50 is over 7.00.

For the compound `C[C@@H]1COCCN1c1ccc(Nc2ncc(F)c(Nc3ccc4c(n3)NC(=O)C(C)(C)O4)n2)cc1` [Compound 81], the pIC50 was 6.30 to 7.00.

On to `C[C@@H]1COCCN1c1ccc(Nc2ncc(F)c(Nc3ccc4c(n3)NC(=O)CO4)n2)cc1` [Compound 82], for which the pIC50 was 6.30 to 7.00.

In the case of `O=C1COc2ccc(Nc3nc(Nc4ccc(N5CCCCC5)cc4)ncc3F)nc2N1` [Compound 83, N4-(3,4-dihydro-3-oxo-2H-pyrido[3,2-b][1,4]oxazin-6-yl)-5-fluoro-N2-[4-(piperidin-1-yl)phenyl]-2,4-pyrimidinediamine], the pIC50 is 6.30 to 7.00.

With `O=C1COc2ccc(Nc3nc(Nc4ccc5c(c4)OCC4COCCN54)ncc3F)nc2N1` (centres unmarked) [Compound 84, N4-(3,4-dihydro-3-oxo-2H-pyrido[3,2-b][1,4]oxazin-6-yl)-5-fluoro-N2-[1,2,4a,5-tetrahydro-4H-[1,4]oxazino[3,4-c][1,4]benzoxazin-8-yl]-2,4-pyrimidinediamine], the pIC50 was 6.30 to 7.00.

As to `CCOC1CCN(c2ccc(Nc3ncc(F)c(Nc4ccc5c(n4)NC(=O)C(C)(C)O5)n3)cc2)CC1` [Compound 85, N4-(2,2-dimethyl-3,4-dihydro-3-oxo-2H-pyrido[3,2-b][1,4]oxazin-6-yl)-5-fluoro-N2-[4-(4-ethoxypiperidin-1-yl)phenyl]-2,4-pyrimidinediamine], the negative-log IC50 (pIC50) was 6.30 to 7.00.

As for `CC(C)OC1CCN(c2ccc(Nc3ncc(F)c(Nc4ccc5c(n4)NC(=O)C(C)(C)O5)n3)cc2)CC1` [Compound 86, N4-(2,2-dimethyl-3,4-dihydro-3-oxo-2H-pyrido[3,2-b][1,4]oxazin-6-yl)-5-fluoro-N2-[4-(4-isopropoxypiperidin-1-yl)phenyl]-2,4-pyrimidinediamine], the pIC50 is 4.00 to 6.00.

As for `CC1(C)Oc2ccc(Nc3nc(Nc4ccc(N5CCC(N6CCOCC6)CC5)cc4)ncc3F)nc2NC1=O` [Compound 87, N4-(2,2-dimethyl-3,4-dihydro-3-oxo-2H-pyrido[3,2-b][1,4]oxazin-6-yl)-5-fluoro-N2-[4-(4-morpholinopiperidin-1-yl)phenyl]-2,4-pyrimidinediamine], the negative logarithm of the IC50 (pIC50) was 6.30 to 7.00.

On to `CCN(CC)C1CCN(c2ccc(Nc3ncc(F)c(Nc4ccc5c(n4)NC(=O)C(C)(C)O5)n3)cc2)CC1` [Compound 88, N4-(2,2-dimethyl-3,4-dihydro-3-oxo-2H-pyrido[3,2-b][1,4]oxazin-6-yl)-5-fluoro-N2-[4-(4-(diethylamino)piperidin-1-yl)phenyl]-2,4-pyrimidinediamine], for which the negative-log IC50 (pIC50) is 6.30 to 7.00.

Regarding `CC1(C)Oc2ccc(Nc3nc(Nc4ccc(N5CCOCC5CO)c(F)c4)ncc3F)nc2NC1=O` (centres unmarked) [Compound 89, N4-(2,2-dimethyl-3,4-dihydro-3-oxo-2H-pyrido[3,2-b][1,4]oxazin-6-yl)-5-fluoro-N2-[3-fluoro-4-(3-(hydroxymethyl)morpholino)phenyl]-2,4-pyrimidinediamine], the pIC50 is 6.30 to 7.00.

As to `CC1(C)Oc2ccc(Nc3nc(Nc4ccc(N5CCC(N)CC5)cc4)ncc3F)nc2NC1=O` [Compound 90, N4-(2,2-dimethyl-3,4-dihydro-3-oxo-2H-pyrido[3,2-b][1,4]oxazin-6-yl)-5-fluoro-N2-[4-(4-aminopiperidin-1-yl)phenyl]-2,4-pyrimidinediamine], the pIC50 is 6.30 to 7.00.

For the compound `CC1(C)Oc2ccc(Nc3nc(Nc4ccc(N5CCOC5=O)cc4)ncc3F)nc2NC1=O` [Compound 91, N4-(2,2-dimethyl-3,4-dihydro-3-oxo-2H-pyrido[3,2-b][1,4]oxazin-6-yl)-5-fluoro-N2-[4-(2-oxooxazolidin-3-yl)phenyl]-2,4-pyrimidinediamine], the negative-log IC50 (pIC50) is over 7.00.

Consider `CC1(C)Oc2ccc(Nc3nc(Nc4ccc(N5C[C@@H]6C[C@H]5CO6)nc4)ncc3F)nc2NC1=O` [Compound 92, N4-(2,2-dimethyl-3,4-dihydro-3-oxo-2H-pyrido[3,2-b][1,4]oxazin-6-yl)-5-fluoro-N2-[6-((1S,4S)-5-oxa-2-aza-bicyclo[2.2.1]heptan-2-yl)pyridin-3-yl]-2,4-pyrimidinediamine], for which the pIC50 was over 7.00.

`C[C@H]1CN(c2ccc(Nc3ncc(F)c(Nc4ccc5c(n4)NC(=O)CO5)n3)cn2)CCO1` [Compound 93, N4-(3,4-dihydro-3-oxo-2H-pyrido[3,2-b][1,4]oxazin-6-yl)-5-fluoro-N2-[6-((2S)-2-methylmorpholino)pyridin-3-yl]-2,4-pyrimidinediamine]: the pIC50 was 6.30 to 7.00.
